Legend:
Test in all cases: MIC, broth microdilution (CLSI), substance alone or ATB combined with compound at 4 or 8 μg/mL
Assay type in all cases: cell-based, A. baumannii
Conditions in all cases: substance alone
ABA 107292 = tested on: ABA 107292
How it was run: (§1)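 Growth inhibition endpoint, read visually after 16-20 h at 35° C in ambient air. Cation-adjusted Mueller-Hinton broth, inoculum 5·10^5 CFU/mL, CLSI M7-A7 protocol.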

ABA 19606 = tested on: ABA 19606
How it was run: as §1

ABA UFR151 = tested on: ABA UFR151
How it was run: as §1

ABA UFR152 = tested on: ABA UFR152
How it was run: as §1

ABA UFR153 = tested on: ABA UFR153
How it was run: as §1

ABA UFR156 = tested on: ABA UFR156
How it was run: as §1

ABA UFR157 = tested on: ABA UFR157
How it was run: as §1

ABA UFR158 = tested on: ABA UFR158
How it was run: as §1

ABA UFR159 = tested on: ABA UFR159
How it was run: as §1

ABA UFR160 = tested on: ABA UFR160
How it was run: as §1

ABA UFR161 = tested on: ABA UFR161
How it was run: as §1

MIC (ABA 107292): >32 µg/mL | MIC (ABA 19606): 32 µg/mL | MIC (ABA UFR151): >32 µg/mL | MIC (ABA UFR152): >32 µg/mL | MIC (ABA UFR153): >32 µg/mL | MIC (ABA UFR156): >32 µg/mL | MIC (ABA UFR157): >32 µg/mL | MIC (ABA UFR158): >32 µg/mL | MIC (ABA UFR159): >32 µg/mL | MIC (ABA UFR160): >32 µg/mL | MIC (ABA UFR161): >32 µg/mL
Compound: O=C1N2CC(n3ccnn3)=CC(C2)N1OS(=O)(=O)[O-].[Na+] (centres unmarked) [Example 12, sodium [7-oxo-3-(triazol-1-yl)-1,6-diazabicyclo[3.2.1]oct-3-en-6-yl] sulfate]

Source: US20200024278A1, “COMPOSITION COMPRISING ANTIBIOTIC COMPOUND AND AN HETEROCYCLIC COMPOUND AND THEIR USE IN PREVENTING OR TREATING BACTERIAL INFECTIONS” (MUTABILIS, priority 2016, published 2020)
